Series [1] in a line: Mutagenicity in Salmonella typhimurium assessed as induction of reverse mutation by Ames test. In kind it is toxicity. Particulars: salmonella enterica subsp. enterica serovar typhimurium. On the technique in general: The Ames test detects mutagens through reverse mutation in bacteria.
Series [2] can be described thus: Half life in Dunkin-Hartley guinea pig plasma at 500 nmol/Kg, IT(Intratracheal) measured after 72 hrs by LC/MS-MS analysis. In kind it is ADME, cell-free, Cavia porcellus. Particulars: inhaled or intranasal.
The test system of series [3] is Trachea. In words: Bifunctional antagonist activity at muscarinic M3 receptor /agonist activity at beta-2 adrenoceptor in Dunkin-Hartley guinea pig trachea assessed as inhibition of acetylcholine-induced bronchoconstriction at 0.1 nmol/Kg, IT(Intratracheal) measured after 15 mins by Konzett-Roessler methodology relative to control. In kind it is functional. Particulars: Cavia porcellus, 0.25 h.

Series [4] has as its system Trachea. In words: Bifunctional antagonist activity at muscarinic M3 receptor /agonist activity at beta-2 adrenoceptor in Dunkin-Hartley guinea pig trachea assessed as inhibition of acetylcholine induced bronchoconstriction at 0.3 nmol/Kg, IT(Intratracheal) measured after 1 hr by Konzett-Roessler methodology relative to control. In kind it is functional. Particulars: Cavia porcellus.

Series [5] in a line: Metabolic stability in human hepatocytes assessed as clearance at 1 uM measured per 10^6 cells and incubated upto 90 mins by LC-MS/MS analysis. Particulars: read-out: CLH. In kind it is ADME, cell-based, Hepatocyte.
Series [6] concerns Trachea. In words: In vivo bifunctional antagonist activity at muscarinic M3 receptor /agonist activity at beta-2 adrenoceptor in Dunkin-Hartley guinea pig trachea assessed as time duration for inhibition of carbachol induced contraction measured […]. In kind it is functional, Cavia porcellus.
In series [7] the test system is Trachea. In words: Bifunctional antagonist activity at muscarinic M3 receptor /agonist activity at beta-2 adrenoceptor in Dunkin-Hartley guinea pig trachea assessed as inhibition of acetylcholine-induced bronchoconstriction at 0.3 nmol/Kg, IT(Intratracheal) measured after 15 mins by Konzett-Roessler methodology relative to control. In kind it is functional. Particulars: Cavia porcellus, 0.25 h.

Series [8] in a line: Metabolic stability in human plasma assessed as half life at 5 uM measured upto 120 mins by LC-MS/MS analysis. In kind it is ADME, cell-free.
The nature of series [9]: Apparent permeability across apical to basolateral side in human Caco-2 cells at 10 uM and measured after 2 hrs by LC-MS/MS analysis. In kind it is ADME, cell-based. (In general: Caco-2 monolayers are a common model of the intestinal barrier.)
Series [10] is described as follows: Mutagenicity in Escherichia coli assessed as induction of reverse mutation by Ames test. In kind it is toxicity.
Series [11] concerns Trachea. Description: Bifunctional antagonist activity at muscarinic M3 receptor /agonist activity at beta-2 adrenoceptor in Dunkin-Hartley guinea pig trachea assessed as inhibition of acetylcholine-induced bronchoconstriction at 0.1 nmol/Kg, IT(Intratracheal) measured after 30 mins by Konzett-Roessler methodology relative to control. In kind it is functional. Particulars: Cavia porcellus, 0.5 h.

Series [12] has as its target D(2) dopamine receptor (Homo sapiens) (UniProt P14416). Description: Inhibition of dopamine D2 receptor (unknown origin) at 10 uM relative to control.
The nature of series [13]: Metabolic stability in Dunkin-Hartley guinea pig hepatocytes assessed as clearance at 1 uM measured per 10^6 cells and incubated upto 90 mins by LC-MS/MS analysis. In kind it is ADME, cell-based, Cavia porcellus, Hepatocyte. Particulars: read-out: CLH.
A short description of series [14]: Metabolic stability in Dunkin-Hartley guinea pig lung S9 fraction assessed as half life at 1 uM measured after 0 to 60 mins in presence of NADPH by LC-MS/MS analysis. Particulars: time 0-60 min. In kind it is ADME, subcellular, Cavia porcellus.
The target of series [15] is T1, 5-hydroxytryptamine receptor 2C (Homo sapiens) (UniProt P28335).
T1 sequence (whole entry): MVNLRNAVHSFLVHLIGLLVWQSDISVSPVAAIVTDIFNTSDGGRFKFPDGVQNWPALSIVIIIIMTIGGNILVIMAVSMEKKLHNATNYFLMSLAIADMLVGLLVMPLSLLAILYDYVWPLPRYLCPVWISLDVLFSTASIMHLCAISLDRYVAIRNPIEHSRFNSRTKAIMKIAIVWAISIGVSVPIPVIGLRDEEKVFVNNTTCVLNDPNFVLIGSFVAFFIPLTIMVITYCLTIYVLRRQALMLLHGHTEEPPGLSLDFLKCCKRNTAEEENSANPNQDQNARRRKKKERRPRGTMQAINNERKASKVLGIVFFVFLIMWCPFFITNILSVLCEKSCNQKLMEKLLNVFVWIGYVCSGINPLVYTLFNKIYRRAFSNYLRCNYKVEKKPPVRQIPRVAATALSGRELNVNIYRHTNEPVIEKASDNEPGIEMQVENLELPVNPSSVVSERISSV
In words: Inhibition of 5-HT2c (unknown origin) at 10 uM relative to control.

Series [16] concerns the target Sodium-dependent serotonin transporter (Homo sapiens) (UniProt P31645). In words: Inhibition of serotonin transporter (unknown origin) at 10 uM relative to control.
Series [17] concerns Trachea. Description: Bifunctional antagonist activity at muscarinic M3 receptor /agonist activity at beta-2 adrenoceptor in Dunkin-Hartley guinea pig trachea assessed as inhibition of acetylcholine induced bronchoconstriction at 1 nmol/Kg, IT(Intratracheal) measured after 1 hr by Konzett-Roessler methodology relative to control. In kind it is functional. Particulars: Cavia porcellus.

The test system of series [18] is Trachea. Description: Bifunctional antagonist activity at muscarinic M3 receptor /agonist activity at beta-2 adrenoceptor in Dunkin-Hartley guinea pig trachea assessed as inhibition of acetylcholine-induced bronchoconstriction at 0.3 nmol/Kg, IT(Intratracheal) measured after 5 mins by Konzett-Roessler methodology relative to control. In kind it is functional. Particulars: Cavia porcellus.

Series [19] can be described thus: AUCinfinity in Dunkin-Hartley guinea pig plasma at 500 nmol/Kg, IT(Intratracheal) measured after 72 hrs by LC/MS-MS analysis. In kind it is ADME, cell-free, Cavia porcellus. More on the design: dose 500 nmol/kg, time 72 hrs, route it(Intratracheal). Particulars: inhaled or intranasal.
Series [20] in a line: In vivo antagonist activity at muscarinic M3 receptor in Dunkin-Hartley guinea pig trachea assessed as inhibition of acetylcholine induced bronchoconstriction at 1 nmol/Kg, IT(Intratracheal) measured after 1 hr in presence of ICI-118551 by Konzett-Roessler methodology relative to control. In kind it is functional. Particulars: Cavia porcellus.
Series [21] in a line: In vivo agonist activity at beta-2 adrenoceptor in Dunkin-Hartley guinea pig trachea assessed as inhibition of histamine induced bronchoconstriction at 1 nmol/Kg, IT(Intratracheal) measured after 24 hr by Konzett-Roessler methodology relative to control. In kind it is functional. Particulars: Cavia porcellus.
Series [22] can be described thus: In vivo agonist activity at beta-2 adrenoceptor in Dunkin-Hartley guinea pig trachea assessed as inhibition of histamine induced bronchoconstriction at 1 nmol/Kg, IT(Intratracheal) measured after 1 hr by Konzett-Roessler methodology relative to control. Particulars: Cavia porcellus. In kind it is functional.
Series [23] is described as follows: Metabolic stability in Dunkin-Hartley guinea pig plasma assessed as half life at 5 uM measured upto 120 mins by LC-MS/MS analysis. In kind it is ADME, cell-free, Cavia porcellus.

Sequence of D(2) dopamine receptor (Homo sapiens) (P14416 whole entry): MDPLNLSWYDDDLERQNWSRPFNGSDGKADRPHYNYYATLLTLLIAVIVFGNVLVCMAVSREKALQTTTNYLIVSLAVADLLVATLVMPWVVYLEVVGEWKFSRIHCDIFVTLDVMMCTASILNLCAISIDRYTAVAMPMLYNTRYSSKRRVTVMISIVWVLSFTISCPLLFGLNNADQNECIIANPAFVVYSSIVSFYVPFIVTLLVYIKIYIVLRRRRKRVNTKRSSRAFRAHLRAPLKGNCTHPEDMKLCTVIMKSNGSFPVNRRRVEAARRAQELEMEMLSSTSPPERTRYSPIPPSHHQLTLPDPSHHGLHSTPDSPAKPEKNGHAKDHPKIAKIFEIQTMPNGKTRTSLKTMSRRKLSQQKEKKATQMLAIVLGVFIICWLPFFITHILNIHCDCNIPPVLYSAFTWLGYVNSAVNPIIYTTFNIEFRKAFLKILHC
Sequence of Sodium-dependent serotonin transporter (Homo sapiens) (P31645 whole entry, looked up): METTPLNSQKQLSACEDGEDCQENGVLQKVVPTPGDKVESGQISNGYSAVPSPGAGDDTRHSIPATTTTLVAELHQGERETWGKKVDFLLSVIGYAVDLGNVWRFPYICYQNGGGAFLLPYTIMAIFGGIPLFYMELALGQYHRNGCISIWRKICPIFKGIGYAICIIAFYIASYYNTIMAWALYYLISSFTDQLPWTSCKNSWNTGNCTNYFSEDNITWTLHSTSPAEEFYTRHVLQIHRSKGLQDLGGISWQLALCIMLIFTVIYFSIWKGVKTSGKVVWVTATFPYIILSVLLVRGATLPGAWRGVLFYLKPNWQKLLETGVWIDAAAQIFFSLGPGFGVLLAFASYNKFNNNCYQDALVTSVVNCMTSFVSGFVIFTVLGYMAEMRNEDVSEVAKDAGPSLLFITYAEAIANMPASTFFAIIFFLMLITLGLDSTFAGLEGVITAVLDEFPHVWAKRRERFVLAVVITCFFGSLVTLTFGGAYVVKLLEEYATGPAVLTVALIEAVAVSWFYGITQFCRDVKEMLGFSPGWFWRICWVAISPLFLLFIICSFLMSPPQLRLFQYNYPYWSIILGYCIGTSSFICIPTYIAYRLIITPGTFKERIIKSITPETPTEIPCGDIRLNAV

As for `Cn1nc(C(=O)OCCCCNC[C@H](O)c2ccc(O)c3[nH]c(=O)ccc23)cc1COc1cccc([C@@H](NC(=O)O[C@H]2CN3CCC2CC3)c2ccccc2)c1`, the Activity entry in series [1] and in [10] was “Non-Toxic” in each case. Moreover, the half-life (usually how long it takes for the measured level to halve) in series [2] is 924 min. Moreover, the values for the inhibition in vivo at 0.0001 µmol/kg in the series with Trachea [3] and with Trachea [11] were 25.1% and 33.1%, respectively. The inhibition in vivo (in general, the percentage by which the read-out fell short of the control) at 0.0003 µmol/kg in the series on Trachea [4] amounted to 58.4%; with Trachea [7] it was 66.2%; in the series on Trachea [18] it was 56.6%. In addition, the hepatocyte CLint at 1 µM is 33 µL/min/1e6 cells in series [5] and 37 µL/min/1e6 cells in series [13]. For the same compound, in the series on Trachea [6], the Time is reported as over 225 min. The half-life at 5 µM in series [8] was 20 min; in [23] it was 34 min. For the same compound, in series [9], the Papp A→B – broadly, the apparent permeability from the apical to the basolateral side of a cell layer – at 2 h, 10 µM amounted to 2.4 ×10⁻⁶ cm/s. In addition, the inhibition in [12], in [15] and in series [16] was over 65% throughout. The half-life at 1 µM in series [14] is over 120 min. Moreover, the inhibition in vivo at 0.001 µmol/kg was determined as 92.4% with Trachea [17], 84.1% in series [20], 50.1% in series [21] and 69.8% in series [22]. For the same compound, the total exposure AUC(0-inf) (commonly the area under the concentration-time curve extrapolated to infinity) in series [19] was found to be 661 ng·h/mL.

For the origin of these results see ChEMBL document CHEMBL5126603, “Discovery of Clinical Candidate CHF-6366: A Novel Super-soft Dual Pharmacology Muscarinic Antagonist and β2 Agonist (MABA) for the Inhaled Treatment of Respiratory Diseases” (J Med Chem, 2022).
